Data as given in patent US11510908B2, “Protein translation inhibitors and uses thereof” (University of Maryland, Baltimore, priority 2019, dated 2022).

Tests used:
[1] = tested on: hnRNP A18 targeted 3'UTR (Trx); test: CAT-Trx 3'UTR reporter assay (CAT ELISA) in LOX-IM VI cells; type: cell-based, human; settings: increasing amounts of drugs, next day
Protocol: CAT-ELISA was performed as recommended by the manufacturer (Sigma-Aldrich). Briefly, human melanoma LOX-IM VI cells stably transfected with hnRNP A18-GFP (9) were transiently transfected with a CAT reporter vector harboring Trx 3′UTR (16). Twenty-four hours later the cells were distributed in 6 well plates and treated with increasing amounts of drugs. The next day, the cells were washed, and protein extracted. […] Cleavage of the substrate catalyzed by the peroxidase enzyme was measured on a plate reader at 405 nm.
In order to determine whether hnRNP A18 binding to these compounds disrupted its cellular functions, a cell-based assay was developed as a read out for hnRNP A18 RNA binding activity. A reporter vector harboring a hnRNP A18 targeted 3′UTR (Trx; (16)) downstream of a CAT gene was engineered. Binding of hnRNP A18 to the targeted 3′UTR is expected to stabilize the CAT transcript and increase CAT protein production, which is then measured by ELISA.

hnRNP A18 [2] = target: T1, hnRNP A18 (Homo sapiens, UniProt Q14011); test: RNA band shift (EMSA) with His-hnRNP A18 and biotinylated hnRNP A18 RNA motif 1; type: binding; design: recombinant full length His-hnRNP A18 incubated with biotinylated hnRNP A18 RNA motif 1; settings: increasing concentrations of compound
T1 sequence (Q14011 1-172): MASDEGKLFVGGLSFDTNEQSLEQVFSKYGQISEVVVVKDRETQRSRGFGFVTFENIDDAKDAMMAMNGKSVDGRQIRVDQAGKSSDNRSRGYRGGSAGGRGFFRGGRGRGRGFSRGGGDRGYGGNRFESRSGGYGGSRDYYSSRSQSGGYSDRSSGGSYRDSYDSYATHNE
Protocol: RNA band shifts were performed according to the manufacturer recommendations (LightShift Chemiluminescent RNA EMSA kit, Thermo Scientific, Rockford, Ill.). Briefly recombinant His-hnRNP A18 or His-hnRNP A1 (1 μg) were incubated with biotinylated RNA (hnRNP A18 motif 1, IRE 28 or 51 nucleotides) in 20 μl and run on native polyacrylamide gels transfer to nylon probes and hybridize with streptavidin HRP antibody.

Aqueous solubility = type: physicochemical
[3] = tested on: melanoma LOX-IM-VI, colon cancer RKO, Glioblastoma D54, pancreatic cancer MiaPaca, MDA-MD-231 cells; test: Cell viability of human cancer cells (Apo-Tox-Glo); type: cell-based; settings: 24 hrs, increasing concentration
Protocol: (§1) Cell Viability and Tumor Growth In Vivo
(§2) Cells viability was measured on normal human mammary epithelial cells (HMEC: ATCC, Gaithersburg, Md.) grown as recommended by the manufacturer and human cancer cells including melanoma LOX-IM-VI, colon cancer RKO, Gliobalstoma D54, pancreatic cancer MiaPaca and triple negative breast cancer MDA-MD-231 cells (5) with the Apo-Tox-Glo kit (Promega, Madison, Wis.) as recommended by the manufacturer. The cells were plated (10,000 cells per well) on a 96 well plate and exposed to increasing concentration of chemical probes for 24 hrs and reacted with the viability reagent as recommended. Fluorescence was measured on a plate reader at 400 nm Ex/505 nm Em.

hnRNP A18 [4] = target: T1, hnRNP A18; test: Fluorescence anisotropy competition binding of hnRNP A18 to fluorescein tagged RNA motif 1; design: recombinant full length His-hnRNP A18 incubated with biotinylated hnRNP A18 RNA motif 1; settings: 25° C., 30 min, read-out: IC50, inhibition of hnRNP A18 binding to its cognate RNA
Protocol: Quantitative assessments of hnRNP A18-RNA binding equilibria were performed using fluorescence anisotropy essentially as described (36). Briefly, binding reactions (100 μl) were assembled as described for RNA band shift (EMSAs) but in absence of glycerol and using fluorescein labeled rather than biotin labeled RNA substrates. Reactions were incubated at 25° C. for 30 min; preliminary kinetics runs verified that equilibrium was attained within this period. Subsequently, total reaction anisotropy (At) and fluorescence intensity were measured using a Beacon 2000 Fluorescence Polarization System (Panvera) equipped with a 490-nm excitation filter and a 535-nm emission filter. Drug-dependent changes in At were analyzed by nonlinear regression using the four parameter logistic equation (Eq.1) and PRISM software (GraphPad).
Here, APR represents the intrinsic anisotropy of the protein:RNA complex in the absence of tested compounds, AR is the anisotropy of the RNA ligand in the absence of protein, [drug] is the concentration of each tested compound, and h is the Hill slope.

[5] = PAMPA (parallel artificial membrane permeability assay); type: in vitro ADME; settings: measured at pH 5.0 and 6.8, room temperature, ~4 hours, read-out: Effective permeability Pe
Protocol: The PAMPA assay was performed by Pion (Billerica, Mass.) on 81 compounds selected out of the 264 compounds showing at least 80% similarity to Compound 1, logP<5.0, and 4DBA closer to 0 (>−4.9). The compounds were dissolved at 10 mM in Dimethyl sulfoxide (DMSO, spectrophotometric grade) and filtered (0.2 μm pore size, hyrodophylic PVDF). The assays were carried in the PAMPA STIRWELL plates (lot A0440) and measured at pH 5.0 and 6.8 at room temperature for ˜4 hours on a PAMPA EVOLUTION instrument.

[6] = tested on: normal human mammary epithelial cells (HMEC); test: Cell viability of normal human mammary epithelial cells (Apo-Tox-Glo); type: cell-based; settings: 24 hrs; for Effect on normal cells viability: Compounds 2 and 3 at doses as high as 150 μM
Protocol: as §1, §2

hnRNP A18 [7] = target: T1, hnRNP A18; test: Cellular Engagement Thermal Shift Assay (CETSA) in LOX-IM-VI cells; type: cell-based; design: expressed in transfected cells; host or cells: LOX-IM-VI human melanoma cells stably transfected with hnRNP A18-GFP; settings: 3 hours, heat shock at Tagg(75), read-out: EC50, binding and stabilization of hnRNP A18 in cells
Protocol: Cellular Thermal Shift Assay (CETSA)
Cellular thermal shift assay (CETSA) was performed with LOX-IM-VI hnRNP
A18 cells cultured in RPMI medium supplemented with 10% FBS. For an initial determination of the melting profile of hnRNP A18, cells dispensed into 96-well PCR plate in the above medium (5000 cells/well/50 μl), were subjected to temperature gradient (40-60° C.) for 10 min. Cold non-denaturing lysis buffer (PBS supplemented with 0.1% TritonX-100 and 1× protease inhibitors) was added to wells, and the plate was rocked and incubated for 15 min on ice. Subsequently, centrifugation was performed at 14.000 rpm to sediment the unstable protein content. Supernatant was collected, and SDS-PAGE gel was run, and immuno-detection was performed using poly-clonal anti-hnRNP A18 antibody (Sigma, CIRP). hnRNP A18 band was quantified on LI-COR C-Digit Blot Scanner, and subsequently Tagg(50) and Tagg(75) values were calculated for hnRNP A18.
In a subsequent run, cells were treated at various doses (80, 40, 20, 10, 5, 2.5 and 1.25 μM) of Compound 2 (Chembridge 7646184), Compound 4 (OTAVA 219853) and Compound 5 (VITAS STK508411) together with DMSO control, for 3 hours. Cells were then subjected to heat shock at Tagg(75) for 10 min, and unstable protein was removed by centrifugation step. Following an immuno-blotting step, bands of stable hnRNP A18 protein was quantified, normalized to loading control and plotted using GraphPad Prism software. EC50 values of Compound 2, Compound 4 and Compound 5 compounds were calculated.

[8] = tested on: Iron Responsive Protein (IRP); test: RNA band shift (EMSA) with Iron Responsive Protein and Iron Responsive Element (specificity); type: binding; settings: very high concentration, decreased specificity
hnRNP A18 RRM = target: T2, hnRNP A18 RRM (Homo sapiens, UniProt Q14011); test: NMR HSQC/TROSY chemical shift perturbation screen; type: binding; settings: 150 μM hnRNP A18, excess compound, 298 K
T2 construct: A18 RNA recognition motif (residues 1-92 of hnRNP A18 wildtype) was expressed and purified; 6x-His (N, cleaved yes); protein G B1 domain (GB1) (N, cleaved yes); made in house; host or cells: E. coli BLD21(DE3) (so in the source)
Protocol: The hnRNP A18 RRM samples used for compound screening via high field NMR spectroscopy using a series of single-quantum coherence (HSQC) experiments contained 0.1 to 0.2 mM ^15N-labeled hnRNP A18 RRM, ultrapure water, 10% D2O, 5% d6-DMSO and up to 5 mM of each of the forty compounds tested, as based on their solubility. All of the HSQC data were collected at 25° C. with a Bruker Avance 800 US2 NMR spectrometer (800.27 MHz, ^1H) equipped with pulsed-field gradients, four frequency channels, an automatic sample changer, and a TXI cryogenic probe. Backbone resonance assignments in the presence of compounds were achieved via compound titrations and monitoring chemical shift changes until solubility limits were reached (<5 mM compound). Data were processed with NMRPipe (35), and proton chemical shifts and their perturbations upon binding the various compounds were reported with respect to the H2O or HDO signal taken as 4.698 ppm relative to external TSP (0.0 ppm).

Compound | Production of CAT protein [1] | Disruption of hnRNP A18 RNA binding activity by band shift (hnRNP A18 [2]) | Aqueous solubility (Aqueous solubility) | Effect on cancer cells viability [3] | IC50 (hnRNP A18 [4]) | Papp [5] | Effect on normal cells viability [6] | EC50 (hnRNP A18 [7]) | Toxicity to normal cells [6] | Concentration at which binding disruption of IRP to Iron Responsive Element was observed [8] | Chemical shift perturbations of hnRNP A18 RRM residues (hnRNP A18 RRM)
COc1cccc(C(=O)Nc2nc(-c3ccc(C)cc3)c(NC(=O)c3ccco3)s2)c1 [Compound 6] | could only reduce CAT protein levels at the highest concentration | specifically competed for hnRNP A18 binding activity | Low aqueous solubility | – | – | – | – | – | – | – | –
CC(=O)Oc1cccc(C(=O)Nc2ccc(C(=O)Nc3nccs3)cc2)c1 [Compound 3] | – | specifically disrupt hnRNP A18 RNA binding activity | – | killing all cancer cell lines tested | 13 µM | > 20 ×10⁻⁶ cm/s | without affecting the viability of normal human epithelial cells | – | – | – | –
CC(=O)Oc1ccccc1C(=O)Nc1ccccc1Sc1ncnc2scc(-c3ccccc3)c12 [Compound 2] | – | specifically disrupt hnRNP A18 RNA binding activity | – | killing all cancer cell lines tested | 15 µM | > 20 ×10⁻⁶ cm/s | without affecting the viability of normal human epithelial cells | 4.7 µM | – | – | –
COc1ccccc1C(=O)Nc1nc(-c2ccc(C)cc2)c(NC(C)=O)s1 [Compound 4] | – | specifically disrupt hnRNP A18 RNA binding activity | – | preferentially killing cancer cells although less efficiently than Compounds 2 and 3 | 39 µM | > 20 ×10⁻⁶ cm/s | no significant effect on normal cells viability | 2.7 µM | – | – | –
Cc1sc(NC(=O)c2ccccc2)nc1OC(=O)c1ccccc1 [Compound 5] | – | specifically disrupt hnRNP A18 RNA binding activity | – | least effective | 2.9 µM | > 20 ×10⁻⁶ cm/s | – | 23.8 µM | 20-40% | – | –
Cc1nc(NC(=O)c2ccccc2)sc1-c1csc(Nc2ccc(O)c(C(=O)O)c2)n1 [Compound 1] | – | out-competed hnRNP A18 RNA consensus motif | – | – | 6.4 µM | – | – | – | – | 5.5 mM | most significant chemical shift perturbations
